Measured values as given in paper PMC3674182 (European journal of medicinal chemistry, 2013).
Values after ≈ are worked out from the molar mass of the structure shown.

Tests used:
[1] = test system: methicillin-resistant S. aureus (MRSA, ATCC 33591); test: in vitro antibacterial activity; assay type: cell-based; conditions: Staphylococcus aureus, ATCC33591|MRSA, read-out: MIC, MRS
[2] = test system: Leishmania donovani axenic amastigotes; test: in vitro antileishmanial activity, axenic amastigotes; assay type: cell-based; conditions: 72 h, read-out: L. donovani IC50, Amastigotes
[3] = test system: intracellular amastigote form of Leishmania; conditions: cited from earlier work

`Oc1ccc(C(c2c[nH]c3ccc(I)cc23)c2c[nH]c3ccc(I)cc23)cc1` [8a, 5,5′-Diiodo-3,3′-(4-hydroxyphenyl-methanediyl)-bisindole] gave an MIC [1] of 2 to 4.3 µM (≈ 1.18 to 2.54 µg/mL).

`N=C(N)c1ccc(OCCCCCOc2ccc(C(=N)N)cc2)cc1` [Pentamidine] showed an IC50 [2] of 2900 nM.

For N-demethylconodurine, the “activity against the intracellular amastigote form of Leishmania” value [3] is given as “strong activity”.

For conodurine, the “activity against the intracellular amastigote form of Leishmania” value [3] is listed as “strong activity”.
